Measurements: patent publication US11109593B2, “Isoxazolin-5-one derivative and herbicide containing same as active ingredient” (HOKKO CHEMICAL INDUSTRY CO., LTD., priority 2017, dated 2021)

Each compound was assayed on Scirpus juncoides (assay: Test Example 1: herbicidal effect test by treatment of rice paddy soil (immediately after seeding)). Settings: 120 g/10a active ingredient, dry weight vs untreated area, 14 days after treatment.
Assay type: in vivo
Protocol: (§1) Herbicidal Effect Test by Treatment of Rice Paddy Soil
(§2) Wagner pots with an area of 1/10000 ares were filled with a paddy soil, and after adding water, a compound fertilizer (N:P:K=17:17:17) was added, followed by soil puddling. Then, Echinochloa crus-galli, broad leaf weeds (Lindernia pyxidaria and Monochoria vaginalis) and Scirpus juncoides, 30 seeds each, were sown in a depth of 0 to 1 cm. Water was poured immediately after seeding, and the water depth was kept at about 3 cm. The subsequent management was conducted in a glass greenhouse. Immediately after that, emulsions prepared using the compounds in Table 3 below according to Formulation Example 5 were diluted with water, and a certain amount of the water-diluted agent solutions were dropped. The converted amount of the applied active ingredient corresponded to 120 g per 10 ares.
(§3) This test was conducted in a double system per one agent solution concentration area, and the herbicidal rates (%) were determined by the following equation (Math. 1) on 14 days after the treatment with the agents. Herbicidal Rate (%)={1-(Average Dry Weight (g) of Plant of Treated Area)/(Average Dry Weight (g) of Plant of Untreated Area)}×100 [Math. 1]
(§4) The compound numbers in Table 3 are the same as those in Table 1 and Table 2 above.

SMILES	Herbicidal rate (%) Scirpus juncoides [%]
Cc1c(Cc2ccccc2NS(=O)(=O)C(F)(F)F)c(=O)on1Cc1ccc(Br)cc1 [Compound 1-187]	80
CCN(c1ccccc1Cc1c(C)n(CC(C)C)oc1=O)S(=O)(=O)C(F)(F)F [Compound 1-263]	60
Cc1c(Cc2ccccc2NS(=O)(=O)C(F)(F)F)c(=O)on1Cc1ccc(F)cc1Cl [Compound 1-201]	100
COc1ccc(Cn2oc(=O)c(Cc3ccccc3N(S(=O)(=O)C(F)(F)F)S(=O)(=O)C(F)(F)F)c2C)cc1 [Compound 1-1022]	90

What follows are compounds tested on Echinochloa crus-galli in the same assay as above. Settings: 120 g/10a active ingredient, dry weight vs untreated area, 14 days after treatment.
Assay type: in vivo
Protocol: as §1, §2, §3, §4

SMILES	Herbicidal rate (%) Echinochloa crus-galli [%]
Cc1c(Cc2ccccc2NS(=O)(=O)C(F)(F)F)c(=O)on1Cc1ccc(Br)cc1 [Compound 1-187]	90
CCN(c1ccccc1Cc1c(C)n(CC(C)C)oc1=O)S(=O)(=O)C(F)(F)F [Compound 1-263]	50
Cc1c(Cc2ccccc2NS(=O)(=O)C(F)(F)F)c(=O)on1Cc1ccc(F)cc1Cl [Compound 1-201]	90
COc1ccc(Cn2oc(=O)c(Cc3ccccc3N(S(=O)(=O)C(F)(F)F)S(=O)(=O)C(F)(F)F)c2C)cc1 [Compound 1-1022]	90

The compounds below were run on broad leaf weeds (Lindernia pyxidaria and Monochoria vaginalis) in the same assay as above. Settings: Lindernia pyxidaria, 120 g/10a active ingredient, dry weight vs untreated area, 14 days after treatment.
Assay type: in vivo
Protocol: as §1, §2, §3, §4

SMILES	Herbicidal rate (%) Lindernia pyxidaria [%]
Cc1c(Cc2ccccc2NS(=O)(=O)C(F)(F)F)c(=O)on1Cc1ccc(Br)cc1 [Compound 1-187]	90
CCN(c1ccccc1Cc1c(C)n(CC(C)C)oc1=O)S(=O)(=O)C(F)(F)F [Compound 1-263]	80
Cc1c(Cc2ccccc2NS(=O)(=O)C(F)(F)F)c(=O)on1Cc1ccc(F)cc1Cl [Compound 1-201]	90
COc1ccc(Cn2oc(=O)c(Cc3ccccc3N(S(=O)(=O)C(F)(F)F)S(=O)(=O)C(F)(F)F)c2C)cc1 [Compound 1-1022]	100

Same assay, conditions: Monochoria vaginalis, 120 g/10a active ingredient, dry weight vs untreated area, 14 days after treatment

SMILES	Herbicidal rate (%) Monochoria vaginalis [%]
Cc1c(Cc2ccccc2NS(=O)(=O)C(F)(F)F)c(=O)on1Cc1ccc(Br)cc1 [Compound 1-187]	90
CCN(c1ccccc1Cc1c(C)n(CC(C)C)oc1=O)S(=O)(=O)C(F)(F)F [Compound 1-263]	50
Cc1c(Cc2ccccc2NS(=O)(=O)C(F)(F)F)c(=O)on1Cc1ccc(F)cc1Cl [Compound 1-201]	80
COc1ccc(Cn2oc(=O)c(Cc3ccccc3N(S(=O)(=O)C(F)(F)F)S(=O)(=O)C(F)(F)F)c2C)cc1 [Compound 1-1022]	100

These compounds were tested on Scirpus juncoides (assay: Test Example 2: herbicidal effect test by treatment during growing period in paddy rice cultivation (seven days after seeding)). Settings: 120 g/10a active ingredient, assessed 14 days after treatment, dry weight vs untreated area.
Assay type: in vivo
Protocol: as §3
(§5) Herbicidal Effect Test by Treatment During Growing Period in Paddy Rice Cultivation
as §2, with “was mixed,” for “was added,”, “greenhouse. Emulsions” for “greenhouse. Immediately after that, emulsions”, “Table 4” for “Table 3”, “with water seven days after seeding,” for “with water,”, “ares. The test was conducted in a double system per one agent solution concentration area, and the herbicidal rates (%) were determined by the equation (Math. 1) on 14 days after the treatment with the agents. […] The compound numbers in Table 4 are the same as those in Table 1 and Table 2 above.” for “ares.”

SMILES	Herbicidal rate (%) Scirpus juncoides [%]
Cc1c(Cc2ccccc2NS(=O)(=O)C(F)(F)F)c(=O)on1Cc1ccc(Br)cc1 [Compound 1-187]	70
CCN(c1ccccc1Cc1c(C)n(CC(C)C)oc1=O)S(=O)(=O)C(F)(F)F [Compound 1-263]	90
Cc1c(Cc2ccccc2NS(=O)(=O)C(F)(F)F)c(=O)on1Cc1ccc(F)cc1Cl [Compound 1-201]	40
COc1ccc(Cn2oc(=O)c(Cc3ccccc3N(S(=O)(=O)C(F)(F)F)S(=O)(=O)C(F)(F)F)c2C)cc1 [Compound 1-1022]	90

What follows are compounds tested on Echinochloa crus-galli in the same assay as above. Settings: 120 g/10a active ingredient, assessed 14 days after treatment, dry weight vs untreated area.
Assay type: in vivo
Protocol: as §3, §5
as §2, with “was mixed,” for “was added,”, “greenhouse. Emulsions” for “greenhouse. Immediately after that, emulsions”, “Table 4” for “Table 3”, “with water seven days after seeding,” for “with water,”, “ares. The test was conducted in a double system per one agent solution concentration area, and the herbicidal rates (%) were determined by the equation (Math. 1) on 14 days after the treatment with the agents. […] The compound numbers in Table 4 are the same as those in Table 1 and Table 2 above.” for “ares.”

SMILES	Herbicidal rate (%) Echinochloa crus-galli [%]
Cc1c(Cc2ccccc2NS(=O)(=O)C(F)(F)F)c(=O)on1Cc1ccc(Br)cc1 [Compound 1-187]	40
CCN(c1ccccc1Cc1c(C)n(CC(C)C)oc1=O)S(=O)(=O)C(F)(F)F [Compound 1-263]	90
Cc1c(Cc2ccccc2NS(=O)(=O)C(F)(F)F)c(=O)on1Cc1ccc(F)cc1Cl [Compound 1-201]	40
COc1ccc(Cn2oc(=O)c(Cc3ccccc3N(S(=O)(=O)C(F)(F)F)S(=O)(=O)C(F)(F)F)c2C)cc1 [Compound 1-1022]	70

What follows are compounds tested on broad leaf weeds (Lindernia pyxidaria and Monochoria vaginalis) in the same assay as above. Settings: Lindernia pyxidaria, 120 g/10a active ingredient, assessed 14 days after treatment, dry weight vs untreated area.
Assay type: in vivo
Protocol: as §3, §5
as §2, with “was mixed,” for “was added,”, “greenhouse. Emulsions” for “greenhouse. Immediately after that, emulsions”, “Table 4” for “Table 3”, “with water seven days after seeding,” for “with water,”, “ares. The test was conducted in a double system per one agent solution concentration area, and the herbicidal rates (%) were determined by the equation (Math. 1) on 14 days after the treatment with the agents. […] The compound numbers in Table 4 are the same as those in Table 1 and Table 2 above.” for “ares.”

SMILES	Herbicidal rate (%) Lindernia pyxidaria [%]
Cc1c(Cc2ccccc2NS(=O)(=O)C(F)(F)F)c(=O)on1Cc1ccc(Br)cc1 [Compound 1-187]	70
CCN(c1ccccc1Cc1c(C)n(CC(C)C)oc1=O)S(=O)(=O)C(F)(F)F [Compound 1-263]	40
Cc1c(Cc2ccccc2NS(=O)(=O)C(F)(F)F)c(=O)on1Cc1ccc(F)cc1Cl [Compound 1-201]	70
COc1ccc(Cn2oc(=O)c(Cc3ccccc3N(S(=O)(=O)C(F)(F)F)S(=O)(=O)C(F)(F)F)c2C)cc1 [Compound 1-1022]	100

Same assay, conditions: Monochoria vaginalis, 120 g/10a active ingredient, assessed 14 days after treatment, dry weight vs untreated area

SMILES	Herbicidal rate (%) Monochoria vaginalis [%]
Cc1c(Cc2ccccc2NS(=O)(=O)C(F)(F)F)c(=O)on1Cc1ccc(Br)cc1 [Compound 1-187]	80
CCN(c1ccccc1Cc1c(C)n(CC(C)C)oc1=O)S(=O)(=O)C(F)(F)F [Compound 1-263]	60
Cc1c(Cc2ccccc2NS(=O)(=O)C(F)(F)F)c(=O)on1Cc1ccc(F)cc1Cl [Compound 1-201]	70
COc1ccc(Cn2oc(=O)c(Cc3ccccc3N(S(=O)(=O)C(F)(F)F)S(=O)(=O)C(F)(F)F)c2C)cc1 [Compound 1-1022]	100
